# Results taken from patent US11793827B2, “Adenosine derivative and pharmaceutical composition comprising the same” (Brii Biosciences, Inc., priority 2021, dated 2023).
# Experiments:
# [1] = Liver S9 stability (human liver S9); type: in vitro ADME; conditions: for half-life at 1 µM: human liver S9, 37° C.; for Formation of EFdA at 30 min: human liver S9, 30 min
# Procedure: Add 600 μL/well stop solution (cold in 4° C., including 100 ng/mL Tolbutamide/100 ng/mL Labetalol) to terminate the TO plate, then put it on ice. Dispense 840 μL/well S9 solution to 96-well plate as reservoir according to plate map. Then add 100 μL/well to every plate by Apricot. Incubate S9 solution and compound at 37° C. for about 10 min except NCF60 and TO. After adding S9 solution and 98μ LPB buffer to NCF60, incubate at 37° C. without pre-warming, start timer 1. After 60 min, add 600 μL/well stop solution to terminate the reaction. After pre-warming, dispense 760 μL/well cofactor solution to 96-well plate as reservoir according to plate map. Then add 98 μL/well to every plate by Apricot to start reaction. Incubate at 37° C., start timer 2, Add 600 μL/well stop solution (cold in 4° C., including 100 ng/mL Tolbutamide and Labetalol) to terminate the reaction. Samples are centrifuged at 4000 rpm for 20 min. While centrifuging, load 8× new 96-well plate with 300 μL HPLC water, then transfer 100 μL supernatant, mix with water for LC/MS/MS, transferred to Bioanalytical Services for LC-MS/MS analysis. Use equation of first order kinetics [NT]1/2 and CL: Equation of first order kinetics: [formula] [formula] [formula] [formula]
# [2] = Plasma stability (human plasma); conditions: for Formation of EFdA at 30 min: human plasma; for half-life at 2 µM: human, pH 7.4
# Procedure: The pooled frozen plasma was thawed in a water bath at 37° C. prior to experiment. Plasma was centrifuged at 4000 rpm for 5 min and the clots were removed if any. The pH will be adjusted to 7.4±0.1 if required.
# Preparation of test compounds and positive control (propantheline bromide): 1 mM intermediate solution was prepared by diluting 10 μL of the stock solution with 90 μL MeOH; 1 mM intermediate of positive control Propantheline was prepared by diluting 10 μL of the stock solution with 90 μL ultrapure water. 100 μM dosing solution was prepared by diluting 20 μL of the intermediate solution (1 mM) with 180 μL MeOH. 98 μL of blank plasma was spiked with 2 μL of dosing solution (100 μM) to achieve 2 μM of the final concentration in duplicate and samples were incubated at 37° C. in a water bath. […] Centrifuged sample plates at 4,000 rpm for 10 min. An aliquot of supernatant (100 μL) was transferred from each well to another plates.
Structure (SMILES),half-life at 1 µM [1] [min],Formation of EFdA at 30 min [1],Formation of EFdA at 30 min [2],half-life at 2 µM ([2]; pooled plasma) [min],half-life at 2 µM ([2]; plasma) [min]
"C#C[C@]1(COC(=O)CC23CC4CC(CC(C4)C2)C3)O[C@@H](n2cnc3c(N)nc(F)nc32)C[C@@H]1O [Compound 1, ((2R,3S,5R)-5-(6-amino-2-fluoro-9H-purin-9-yl)-2-ethynyl-3-hydroxy-tetrahydrofuran-2-yl)methyl 2-(1-adamantyl) acetate]",< 50,Yes,No,> 200,–
"C#C[C@]1(COC(=O)C23CC4CC(CC(C4)C2)C3)O[C@@H](n2cnc3c(N)nc(F)nc32)C[C@@H]1O [Compound 3, ((2R, 3S, 5R)-5-(6-amino-2-fluoro-9H-purin-9-yl)-2-ethynyl-3-hydroxy-tetrahydrofuran-2-yl)methyl adamantane-1-carboxylate]",< 50,Yes,No,< 50,–
"C#C[C@]1(COC(=O)OC23CC4CC(CC(C4)C2)C3)O[C@@H](n2cnc3c(N)nc(F)nc32)C[C@@H]1O [Compound 4, ((2R, 3S, 5R)-5-(6-amino-2-fluoro-9H-purin-9-yl)-2-ethynyl-3-hydroxy-tetrahydrofuran-2-yl)methyl 1-adamantyl carbonate]",< 50,Yes,Yes,> 200,–
"C#C[C@]1(COC(=O)OC23CC4CC(CC(C4)C2)C3)O[C@@H](n2cnc3c(N)nc(F)nc32)C[C@@H]1OC(=O)OC12CC3CC(CC(C3)C1)C2 [Compound 6, (((2R,3S,5R)-3-((((1-adamantyl)oxy)carbonyl)oxy)-5-(6-amino-2-fluoro-9H-purin-9-yl)-2-ethynyltetrahydrofuran-2-yl)methyl) 1-adamantyl carbonate]",< 50,Yes,No,> 200,–
"C#C[C@]1(CO)O[C@@H](n2cnc3c(N)nc(F)nc32)C[C@@H]1OC(=O)OCCC12CC3CC(CC(C3)C1)C2 [Compound 8, ((2R,3S,5R)-5-(6-amino-2-fluoro-9H-purin-9-yl)-2-ethynyl-2-(hydroxymethyl)tetrahydrofuran-3-yl) 2-(1-adamantyl)ethyl carbonate]",< 50,Yes,Yes,50 to 200,–
"C#C[C@]1(COC(=O)OCCC23CC4CC(CC(C4)C2)C3)O[C@@H](n2cnc3c(N)nc(F)nc32)C[C@@H]1OC(=O)OCCC12CC3CC(CC(C3)C1)C2 [Compound 9, ((2R,3S,5R)-2-((((2-(1-adamantyl)ethoxy)carbonyl)oxy)methyl)-5-(6-amino-2-fluoro-9H-purin-9-yl)-2-ethynyltetrahydrofuran-3-yl) 2-(1-adamantyl)ethyl carbonate]",< 50,Yes,No,> 200,–
"C#C[C@]1(CO)O[C@@H](n2cnc3c(N)nc(F)nc32)C[C@@H]1OC(=O)OCCCC12CC3CC(CC(C3)C1)C2 [Compound 11, ((2R,3S,5R)-5-(6-amino-2-fluoro-9H-purin-9-yl)-2-ethynyl-2-(hydroxymethyl)tetrahydrofuran-3-yl) 3-(1-adamantyl)propyl carbonate]",< 50,Yes,–,–,–
"C#C[C@]1(CO)O[C@@H](n2cnc3c(N)nc(F)nc32)C[C@@H]1OC(=O)OCCCCC12CC3CC(CC(C3)C1)C2 [Compound 13, ((2R,3S,5R)-5-(6-amino-2-fluoro-9H-purin-9-yl)-2-ethynyl-2-(hydroxymethyl)tetrahydrofuran-3-yl) 4-(1-adamantyl)butyl carbonate]",< 50,Yes,–,–,–
"C#C[C@@]12COC(=O)OCCCOC(=O)O[C@H]1C[C@H](n1cnc3c(N)nc(F)nc31)O2 [Compound 16, (10aR,12R,13aS)-12-(6-amino-2-fluoro-9H-purin-9-yl)-10a-ethynylhexahydro-4H,10H-furo[3,2-d][1,3,7,9]tetraoxacyclododecine-2,8-dione]",–,–,Yes,–,50 to 200
"C#C[C@]1(COC(=O)OCCC23CC4CC(CC(C4)C2)C3)O[C@@H](n2cnc3c(N)nc(F)nc32)C[C@@H]1OC(=O)OCC [Compound 18, ((2R,3S,5R)-2-((((2-(1-adamantyl)ethoxy)carbonyl)oxy)methyl)-5-(6-amino-2-fluoro-9H-purin-9-yl)-2-ethynyltetrahydrofuran-3-yl) ethyl carbonate]",< 50,Yes,No,–,< 50

# The next lines start with results.
half-life at 1 µM [1] [min],Formation of EFdA at 30 min [1],Formation of EFdA at 30 min [2],half-life at 2 µM ([2]; pooled plasma) [min],Structure (SMILES),half-life at 2 µM ([2]; plasma) [min]
< 50,Yes,Yes,< 50,"C#C[C@@]12COC(=O)OCCCCCC(=O)OC1C[C@H](n1cnc3c(N)nc(F)nc31)O2 (stereo in doubt) [Compound 29, (1R,13R,15R)-15-(6-amino-2-fluoro-9H-purin-9-yl)-13-ethynyl-2,9,11,14-tetraoxabicyclo[11.3.0]hexadecane-3,10-dione]",–
< 50,Yes,No,50 to 200,"C#C[C@@]12COC(=O)OCC3CCCCC3COC(=O)OC1C[C@H](n1cnc3c(N)nc(F)nc31)O2 (stereo in doubt) [Compound 30, (6R,8R,10R)-8-(6-amino-2-fluoro-9H-purin-9-yl)-10-ethynyl-3,5,9,12,14-pentaoxatricyclo[14.4.0.06,10]icosane-4,13-dione]",–
< 50,Yes,Yes,< 50,"C#C[C@]1(COC(=O)CCC23CC4CC(CC(C4)C2)C3)O[C@@H](n2cnc3c(N)nc(F)nc32)C[C@@H]1O [Compound 14, ((2R, 3S, 5R)-5-(6-amino-2-fluoro-9H-purin-9-yl)-2-ethynyl-3-hydroxy-tetrahydrofuran-2-yl)methyl 3-(1-adamantyl)propanoate]",–
< 50,Yes,Yes,< 50,"C#C[C@]1(COC(=O)CCCC23CC4CC(CC(C4)C2)C3)O[C@@H](n2cnc3c(N)nc(F)nc32)C[C@@H]1O [Compound 15, ((2R, 3S, 5R)-5-(6-amino-2-fluoro-9H-purin-9-yl)-2-ethynyl-3-hydroxy-tetrahydrofuran-2-yl)methyl 4-(1-adamantyl)butanoate]",–
< 50,Yes,Yes,> 200,"C#C[C@@]12COC(=O)CCCCCOC(=O)O[C@H]1C[C@H](n1cnc3c(N)nc(F)nc31)O2 [Compound 17, (11aR,13R,14aS)-13-(6-amino-2-fluoro-9H-purin-9-yl)-11a-ethynyloctahydro-11H-furo[3,2-d][1,3,7]trioxacyclotridecine-2,9(4H)-dione]",–
< 50,Yes,No,< 50,"C#C[C@]1(COC(=O)OCCC23CC4CC(CC(C4)C2)C3)O[C@@H](n2cnc3c(N)nc(F)nc32)C[C@@H]1OC(=O)C(C)C [Compound 19, ((2R,3S,5R)-2-((((2-(1-adamantyl)ethoxy)carbonyl)oxy)methyl)-5-(6-amino-2-fluoro-9H-purin-9-yl)-2-ethynyltetrahydrofuran-3-yl) isobutyrate]",–
< 50,Yes,–,–,"C#C[C@]1(COC(=O)OCC23CC4CC(CC(C4)C2)C3)O[C@@H](n2cnc3c(N)nc(F)nc32)C[C@@H]1OC(=O)C(C)C [Compound 20, ((2R,3S,5R)-2-(((((1-adamantyl)methoxy)carbonyl)oxy)methyl)-5-(6-amino-2-fluoro-9H-purin-9-yl)-2-ethynyltetrahydrofuran-3-yl) isobutyrate]",–
< 50,Yes,Yes,50 to 200,"C#C[C@]1(COC(=O)OCCCC23CC4CC(CC(C4)C2)C3)O[C@@H](n2cnc3c(N)nc(F)nc32)C[C@@H]1OC(=O)C(C)C [Compound 21, ((2R,3S,5R)-2-((((3-(1-adamantyl)propoxy)carbonyl)oxy)methyl)-5-(6-amino-2-fluoro-9H-purin-9-yl)-2-ethynyltetrahydrofuran-3-yl) isobutyrate]",–
